Earlier results in patent publication US10912731B2, “Biphasic oral care compositions” (Colgate-Palmolive Company, priority 2017, dated 2021).

Conditions: aqueous solution

## NCCCC[C@H](N)C(=O)O [lysine]
  Isoelectric point: 9.7 pH
